In experiment [1] the target is Tb-labeled inactive PDGFRβ (Homo sapiens (Human), UniProt P09619). Kind of experiment: PDGFRβ LanthaScreen Assay. The format is binding. The conditions noted are these: read-out: PDGFR Lantha IC50.
The target of another experiment is VEGFR2, unphosphorylated (Homo sapiens (Human), UniProt P35968). Put plainly: VEGFR ADP GLO Assay. It counts as biochemical. (ADP-Glo turns the ADP formed in a reaction into a luminescent signal.)
VEGFR2, unphosphorylated, sequence (P35968 20-1356): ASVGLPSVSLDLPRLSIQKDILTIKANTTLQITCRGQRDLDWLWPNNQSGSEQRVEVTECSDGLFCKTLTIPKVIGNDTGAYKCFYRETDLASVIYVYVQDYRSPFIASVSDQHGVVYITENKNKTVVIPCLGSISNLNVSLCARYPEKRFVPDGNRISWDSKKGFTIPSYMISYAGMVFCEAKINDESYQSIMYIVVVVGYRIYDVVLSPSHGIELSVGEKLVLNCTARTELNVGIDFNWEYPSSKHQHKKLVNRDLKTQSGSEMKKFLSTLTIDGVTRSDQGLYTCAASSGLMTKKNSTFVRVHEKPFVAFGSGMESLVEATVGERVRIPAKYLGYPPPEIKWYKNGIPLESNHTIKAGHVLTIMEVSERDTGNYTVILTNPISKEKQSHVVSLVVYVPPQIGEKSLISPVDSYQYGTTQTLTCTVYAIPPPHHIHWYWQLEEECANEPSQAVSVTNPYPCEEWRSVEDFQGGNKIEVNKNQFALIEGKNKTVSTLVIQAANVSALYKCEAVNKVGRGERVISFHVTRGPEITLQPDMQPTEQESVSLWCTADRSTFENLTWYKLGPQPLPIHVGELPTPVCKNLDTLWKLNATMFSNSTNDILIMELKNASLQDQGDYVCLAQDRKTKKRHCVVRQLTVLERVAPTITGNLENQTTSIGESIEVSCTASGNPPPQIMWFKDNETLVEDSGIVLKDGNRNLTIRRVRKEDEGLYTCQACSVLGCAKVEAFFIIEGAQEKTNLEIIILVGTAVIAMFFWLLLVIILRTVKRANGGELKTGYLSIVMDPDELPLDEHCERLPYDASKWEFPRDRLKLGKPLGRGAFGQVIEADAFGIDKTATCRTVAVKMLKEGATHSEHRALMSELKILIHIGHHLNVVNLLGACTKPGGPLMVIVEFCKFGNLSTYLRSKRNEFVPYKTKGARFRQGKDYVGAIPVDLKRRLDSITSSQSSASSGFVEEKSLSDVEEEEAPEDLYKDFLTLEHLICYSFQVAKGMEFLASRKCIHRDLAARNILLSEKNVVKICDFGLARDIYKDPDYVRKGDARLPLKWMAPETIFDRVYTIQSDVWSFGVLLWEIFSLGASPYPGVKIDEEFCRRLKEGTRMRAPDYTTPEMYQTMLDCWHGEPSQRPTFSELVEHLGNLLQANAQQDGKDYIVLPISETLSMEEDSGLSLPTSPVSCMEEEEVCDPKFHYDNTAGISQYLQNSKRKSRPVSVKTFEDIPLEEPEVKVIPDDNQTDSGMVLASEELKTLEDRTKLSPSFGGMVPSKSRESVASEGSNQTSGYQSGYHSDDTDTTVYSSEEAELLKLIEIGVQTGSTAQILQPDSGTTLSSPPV

Tb-labeled inactive PDGFRβ, sequence (P09619 33-1106): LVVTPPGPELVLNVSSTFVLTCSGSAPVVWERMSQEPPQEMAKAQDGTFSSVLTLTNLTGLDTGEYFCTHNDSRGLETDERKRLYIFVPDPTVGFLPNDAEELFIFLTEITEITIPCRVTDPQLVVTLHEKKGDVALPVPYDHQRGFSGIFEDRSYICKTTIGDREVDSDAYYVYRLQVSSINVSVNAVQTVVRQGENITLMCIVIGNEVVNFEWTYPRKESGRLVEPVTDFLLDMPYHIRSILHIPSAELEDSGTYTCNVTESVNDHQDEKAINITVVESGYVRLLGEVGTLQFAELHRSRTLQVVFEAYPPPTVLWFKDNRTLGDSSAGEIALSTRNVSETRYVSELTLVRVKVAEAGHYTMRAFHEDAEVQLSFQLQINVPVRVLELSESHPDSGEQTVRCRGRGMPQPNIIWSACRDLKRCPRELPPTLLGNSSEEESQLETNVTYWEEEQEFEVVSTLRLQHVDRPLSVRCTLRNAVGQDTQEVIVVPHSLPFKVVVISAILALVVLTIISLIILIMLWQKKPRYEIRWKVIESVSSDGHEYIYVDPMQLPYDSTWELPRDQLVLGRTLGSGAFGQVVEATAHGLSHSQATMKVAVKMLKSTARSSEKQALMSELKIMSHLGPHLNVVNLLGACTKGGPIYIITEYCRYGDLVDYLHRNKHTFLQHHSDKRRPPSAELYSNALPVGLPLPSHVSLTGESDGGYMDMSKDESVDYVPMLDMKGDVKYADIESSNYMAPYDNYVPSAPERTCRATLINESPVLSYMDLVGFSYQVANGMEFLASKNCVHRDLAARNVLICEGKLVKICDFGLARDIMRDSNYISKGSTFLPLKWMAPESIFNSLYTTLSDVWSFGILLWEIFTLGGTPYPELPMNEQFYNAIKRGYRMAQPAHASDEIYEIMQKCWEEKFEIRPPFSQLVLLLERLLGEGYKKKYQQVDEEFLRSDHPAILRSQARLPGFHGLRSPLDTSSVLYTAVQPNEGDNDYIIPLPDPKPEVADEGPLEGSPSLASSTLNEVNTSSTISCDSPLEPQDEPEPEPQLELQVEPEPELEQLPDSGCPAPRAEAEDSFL

In general, IC50 refers to the concentration that gives 50% inhibition. For `Cc1ncc(NC(=O)CNC2CCCC2)cc1NC(=O)c1cnn2cc(-c3cnn4c3CCC4)sc12` [Example 422, N-(5-(2-(cyclopentylamino)acetamido)-2-methylpyridin-3-yl)-2-(5,6-dihydro-4H-pyrrolo[1,2-b]pyrazol-3-yl)pyrazolo[5,1-b]thiazole-7-carboxamide], the concentration for half-maximal inhibition (IC50) is 1.1 nM in experiment [1] and greater than 7500 nM on VEGFR2, unphosphorylated.

For `Cc1ncc(NC(=O)CN2CC3(CCCCO3)C2)cc1NC(=O)c1cnn2cc(-c3cnn4c3OCCC4)sc12` [Example 423, N-(5-(2-(5-oxa-2-azaspiro[3.5]nonan-2-yl)acetamido)-2-methylpyridin-3-yl)-2-(6,7-dihydro-5H-pyrazolo[5,1-b][1,3]oxazin-3-yl)pyrazolo[5,1-b]thiazole-7-carboxamide], the 50% inhibitory concentration (IC50) in experiment [1] is 3.7 nM; against VEGFR2, unphosphorylated, greater than 7500 nM.

For the compound `Cc1ncc(NC(=O)CN2CC3(CCCCO3)C2)cc1NC(=O)c1cnn2cc(-c3cnn4c3CCC4)sc12` [Example 424, N-(5-(2-(5-oxa-2-azaspiro[3.5]nonan-2-yl)acetamido)-2-methylpyridin-3-yl)-2-(5,6-dihydro-4H-pyrrolo[1,2-b]pyrazol-3-yl)pyrazolo[5,1-b]thiazole-7-carboxamide], the 50% inhibitory concentration (IC50) was 2.2 nM in experiment [1] and greater than 7500 nM on VEGFR2, unphosphorylated.

Consider `Cc1ncc(NC(=O)CN2CC(C)(C)C2)cc1NC(=O)c1cnn2cc(-c3c(C)nn(C4COC4)c3C)sc12` [Example 425, 2-(3,5-dimethyl-1-(oxetan-3-yl)-1H-pyrazol-4-yl)-N-(5-(2-(3,3-dimethylazetidin-1-yl)acetamido)-2-methylpyridin-3-yl)pyrazolo[5,1-b]thiazole-7-carboxamide], for which the 50% inhibitory concentration (IC50) in experiment [1] was 6.8 nM; at VEGFR2, unphosphorylated, greater than 7500 nM.

Regarding `Cc1ncc(NC(=O)CC2CNC2)cc1NC(=O)c1cnn2cc(-c3cnn4c3CCC4)sc12` [Example 426, N-(5-(2-(azetidin-3-yl)acetamido)-2-methylpyridin-3-yl)-2-(5,6-dihydro-4H-pyrrolo[1,2-b]pyrazol-3-yl)pyrazolo[5,1-b]thiazole-7-carboxamide], the IC50 is 482 nM in experiment [1] and greater than 7500 nM at VEGFR2, unphosphorylated.

Turning to `Cc1ncc(NC(=O)CC2CN(C)C2)cc1NC(=O)c1cnn2cc(-c3cnn4c3CCC4)sc12` [Example 427, 2-(5,6-dihydro-4H-pyrrolo[1,2-b]pyrazol-3-yl)-N-(2-methyl-5-(2-(1-methylazetidin-3-yl)acetamido)pyridin-3-yl)pyrazolo[5,1-b]thiazole-7-carboxamide], the IC50 in experiment [1] is 150 nM; against VEGFR2, unphosphorylated, greater than 7500 nM.

Take `Cc1ncc(NC(=O)CN2CC(C)(C)C2)cc1NC(=O)c1cnn2cc(-c3cnn(C(F)F)c3)sc12` [Example 428, 2-(1-(difluoromethyl)-1H-pyrazol-4-yl)-N-(5-(2-(3,3-dimethylazetidin-1-yl)acetamido)-2-methylpyridin-3-yl)pyrazolo[5,1-b]thiazole-7-carboxamide]: the half-maximal inhibitory concentration (IC50) was 17.3 nM in experiment [1] and greater than 7500 nM at VEGFR2, unphosphorylated.

As for `Cc1ncc(NC(=O)CN2CC(C)(C)C2)cc1NC(=O)c1cnn2cc(-c3cncnc3)sc12` [Example 429, N-(5-(2-(3,3-dimethylazetidin-1-yl)acetamido)-2-methylpyridin-3-yl)-2-(pyrimidin-5-yl)pyrazolo[5,1-b]thiazole-7-carboxamide], the IC50 in experiment [1] was 185 nM; against VEGFR2, unphosphorylated, greater than 7500 nM.

With `Cc1ncc(NC(=O)CN2CC(C)(C)C2)cc1NC(=O)c1cnn2cc(-c3cn(C)nc3C)sc12` [Example 430, 2-(1,3-Dimethyl-1H-pyrazol-4-yl)-N-(5-(2-(3,3-dimethylazetidin-1-yl)acetamido)-2-methylpyridin-3-yl)pyrazolo[5,1-b]thiazole-7-carboxamide], the IC50 in experiment [1] was 1.8 nM; against VEGFR2, unphosphorylated it was 5170 nM.

With `Cc1ncc(NC(=O)CN2C[C@@H](C)O[C@H](C)C2)cc1NC(=O)c1cnn2cc(-c3cn(C)nc3C)sc12` [Example 431], the IC50 was 3.5 nM in experiment [1] and greater than 7500 nM against VEGFR2, unphosphorylated.

`Cc1ncc(NC(=O)CN2CC(C)(C)C2)cc1NC(=O)c1cnn2cc(-c3cnn(C)c3C)sc12` [Example 434, 2-(1,5-Dimethyl-1H-pyrazol-4-yl)-N-(5-(2-(3,3-dimethylazetidin-1-yl)acetamido)-2-methylpyridin-3-yl)pyrazolo[5,1-b]thiazole-7-carboxamide]: the IC50 in experiment [1] stood at 2.2 nM; against VEGFR2, unphosphorylated, 5220 nM.

Turning to `Cc1ncc(NC(=O)CN2CC(C)(C)C2)cc1NC(=O)c1cnn2cc(-c3cnn(CCS(C)(=O)=O)c3)sc12` [Example 435, N-(5-(2-(3,3-Dimethylazetidin-1-yl)acetamido)-2-methylpyridin-3-yl)-2-(1-(2-(methylsulfonyl)ethyl)-1H-pyrazol-4-yl)pyrazolo[5,1-b]thiazole-7-carboxamide], the IC50 in experiment [1] is 6.8 nM; against VEGFR2, unphosphorylated, greater than 7500 nM.

`CCOc1ncccc1-c1cn2ncc(C(=O)Nc3cc(NC(=O)CN4CC(C)(C)C4)cnc3C)c2s1` [Example 436, N-(5-(2-(3,3-Dimethylazetidin-1-yl)acetamido)-2-methylpyridin-3-yl)-2-(2-ethoxypyridin-3-yl)pyrazolo[5,1-b]thiazole-7-carboxamide]: the IC50 amounted to 0.9 nM in experiment [1] and 4300 nM against VEGFR2, unphosphorylated.

Regarding `Cc1ncc(NC(=O)CN2CC(C)(C)C2)cc1NC(=O)c1cnn2cc(-c3cccnc3OC(F)(F)F)sc12` [Example 437, N-(5-(2-(3,3-dimethylazetidin-1-yl)acetamido)-2-methylpyridin-3-yl)-2-(2-(trifluoromethoxy)pyridin-3-yl)pyrazolo[5,1-b]thiazole-7-carboxamide], the IC50 in experiment [1] was 4.6 nM; against VEGFR2, unphosphorylated, greater than 7500 nM.

`COC1CN(CC(=O)Nc2cnc(C)c(NC(=O)c3cnn4cc(-c5cn(C)nc5C)sc34)c2)C1` [Example 441, 2-(1,3-Dimethyl-1H-pyrazol-4-yl)-N-(5-(2-(3-methoxyazetidin-1-yl)acetamido)-2-methylpyridin-3-yl)pyrazolo[5,1-b]thiazole-7-carboxamide]: the half-inhibitory concentration (IC50) in experiment [1] is 19.7 nM; against VEGFR2, unphosphorylated, greater than 7500 nM.

Consider `COC1(C)CN(CC(=O)Nc2cnc(C)c(NC(=O)c3cnn4cc(-c5cn(C)nc5C)sc34)c2)C1` [Example 442, 2-(1,3-Dimethyl-1H-pyrazol-4-yl)-N-(5-(2-(3-methoxy-3-methylazetidin-1-yl)acetamido)-2-methylpyridin-3-yl)pyrazolo[5,1-b]thiazole-7-carboxamide], for which the half-inhibitory concentration (IC50) was 3.1 nM in experiment [1] and greater than 7500 nM on VEGFR2, unphosphorylated.

On to `Cc1ncc(NC(=O)CN2CCC[C@H]2C)cc1NC(=O)c1cnn2cc(-c3nn(C)nc3C)sc12` [Example 443, (R)-2-(2,5-dimethyl-2H-1,2,3-triazol-4-yl)-N-(2-methyl-5-(2-(2-methylpyrrolidin-1-yl)acetamido)pyridin-3-yl)pyrazolo[5,1-b]thiazole-7-carboxamide], for which the half-inhibitory concentration (IC50) in experiment [1] was 4.4 nM; against VEGFR2, unphosphorylated it was greater than 7500 nM.

Turning to `Cc1ncc(NC(=O)CN2CCCC2(C)C)cc1NC(=O)c1cnn2cc(-c3cn(C)nc3C)sc12` [Example 444, 2-(1,3-Dimethyl-1H-pyrazol-4-yl)-N-(5-(2-(2,2-dimethylpyrrolidin-1-yl)acetamido)-2-methylpyridin-3-yl)pyrazolo[5,1-b]thiazole-7-carboxamide], the IC50 in experiment [1] was 1.8 nM; on VEGFR2, unphosphorylated, greater than 7500 nM.

As for `Cc1ncc(NC(=O)CN2CC(C)(C)C2)cc1NC(=O)c1cnn2cc(-c3nn(C)nc3C)sc12` [Example 445, 2-(2,5-Dimethyl-2H-1,2,3-triazol-4-yl)-N-(5-(2-(3,3-dimethylazetidin-1-yl)acetamido)-2-methylpyridin-3-yl)pyrazolo[5,1-b]thiazole-7-carboxamide], the IC50 was 2.1 nM in experiment [1] and greater than 7500 nM at VEGFR2, unphosphorylated.

For the compound `Cc1ncc(NC(=O)CN2CCC(C)C2)cc1NC(=O)c1cnn2cc(-c3cn(C)nc3C)sc12` (centres unmarked) [Example 446, 2-(1,3-Dimethyl-1H-pyrazol-4-yl)-N-(2-methyl-5-(2-(3-methylpyrrolidin-1-yl)acetamido)pyridin-3-yl)pyrazolo[5,1-b]thiazole-7-carboxamide], the IC50 in experiment [1] was 3.5 nM; at VEGFR2, unphosphorylated, greater than 7500 nM.

With `Cc1ncc(NC(=O)CN2CCCC2(C)C)cc1NC(=O)c1cnn2cc(-c3cnn(CCO)c3)sc12` [Example 447, N-(5-(2-(2,2-dimethylpyrrolidin-1-yl)acetamido)-2-methylpyridin-3-yl)-2-(1-(2-hydroxyethyl)-1H-pyrazol-4-yl)pyrazolo[5,1-b]thiazole-7-carboxamide], the half-inhibitory concentration (IC50) is 3.7 nM in experiment [1] and greater than 7500 nM against VEGFR2, unphosphorylated.

Regarding `Cc1ncc(NC(=O)CN2CCCC2(C)C)cc1NC(=O)c1cnn2cc(-c3cccnc3OCCF)sc12` [Example 448, N-(5-(2-(2,2-dimethylpyrrolidin-1-yl)acetamido)-2-methylpyridin-3-yl)-2-(2-(2-fluoroethoxy)pyridin-3-yl)pyrazolo[5,1-b]thiazole-7-carboxamide], the half-maximal inhibitory concentration (IC50) was 1.8 nM in experiment [1] and greater than 7500 nM against VEGFR2, unphosphorylated.

Turning to `Cc1ncc(NC(=O)CN2CCCC2(C)C)cc1NC(=O)c1cnn2cc(-c3cccn(CCF)c3=O)sc12` [Example 449, N-(5-(2-(2,2-dimethylpyrrolidin-1-yl)acetamido)-2-methylpyridin-3-yl)-2-(1-(2-fluoroethyl)-2-oxo-1,2-dihydropyridin-3-yl)pyrazolo[5,1-b]thiazole-7-carboxamide], the IC50 was 9.1 nM in experiment [1] and greater than 7500 nM on VEGFR2, unphosphorylated.

Turning to `Cc1ncc(C(=O)NCCN2CCCC2(C)C)cc1NC(=O)c1cnn2cc(-c3cnn4c3COCC4)sc12` [Example 450, 2-(6,7-dihydro-4H-pyrazolo[5,1-c][1,4]oxazin-3-yl)-N-(5-((2-(2,2-dimethylpyrrolidin-1-yl)ethyl)carbamoyl)-2-methylpyridin-3-yl)pyrazolo[5,1-b]thiazole-7-carboxamide], the IC50 is 2.4 nM in experiment [1] and greater than 7500 nM against VEGFR2, unphosphorylated.

With `COCCn1cc(-c2cn3ncc(C(=O)Nc4cc(NC(=O)C[C@@H]5CCCN5C(C)C)cnc4C)c3s2)cn1` [Example 451, (S)—N-(5-(2-(1-isopropylpyrrolidin-2-yl)acetamido)-2-methylpyridin-3-yl)-2-(1-(2-methoxyethyl)-1H-pyrazol-4-yl)pyrazolo[5,1-b]thiazole-7-carboxamide], the IC50 in experiment [1] was 16.1 nM; against VEGFR2, unphosphorylated, greater than 7500 nM.

Source of the values: US20240109917A1 (ACTELION PHARMACEUTICALS LTD, priority 2020, published 2024).
